According to patent US20150118179A1, “BIOCIDAL COMPOUNDS AND METHODS FOR USING SAME” (UNIVERSITY OF MANITOBA, priority 2012, published 2015):

How the values were obtained:
MDR-E. coli (#70094) = assay: Biocidal activity in bacterial suspension (Example 17); assay type: cell-based, Escherichia coli; conditions: 15 ppm [Cl+]
Method: (§1) In the model study we investigated the bactericidal performance of small molecules 2 and 43 against three strains for each bacterium at the concentration of 15 ppm.
(§2) Tryptone Soya Agar (TSA) was used for bacterial culture. After sub-cultured from stocks, bacteria were allowed to grow at 37° C. for 18-20 hours to obtain logarithmic-phase cultures. Biocidal activity of 2 and 43 were completed as followed. To 20 mL bacterial suspension (10^6-10^7 colony forming units (CFU)/mL) in a centrifuge tube was added 30 μL it 2 or 43 solutions (0.28 M stock solution) respectively to achieve final 15 ppm [Cl^+]). Timing of the exposure to the disinfectant was started immediately with the addition of the synthetic compound 2 or 43. After the contact for 5 min, 10 min, and 20 min respectively, 1.0 mL aliquots were withdrawn and added to an equal volume of 0.02 N sodium thiosulfate in PBS (0.05 M, pH 7.0). The quenched suspension was serially diluted and 100 μL of each resulting dilutions were placed onto nutrient agar plates. The same procedure was also applied to compounds 1 and 42 as controls. After being incubated at 37° C. for 24 hours, viable bacterial colonies on the plates were counted. Bacterial reduction was reported according to the following equation.
(§3) Percentage reduction of bacteria (%)=(A−B)/A×100
(§4) Where A is the number of bacteria retrieved from controls (CFU/mL), and B is the number of bacteria retrieved from 2 or 43 (CFU/mL).

MDR-E. coli (#95882) = assay: as above; assay type: cell-based, Escherichia coli; conditions: 15 ppm [Cl+]
Method: as §1, §2, §3, §4

E. coli ATCC 25922 = assay: as above; assay type: cell-based, Escherichia coli; conditions: 15 ppm [Cl+]
Method: as §1, §2, §3, §4

CA-MRSA 40065 = assay: Biocidal activity in bacterial suspension (Example 18); assay type: cell-based, Staphylococcus aureus; conditions: Table 2, 15 ppm [Cl+], inoculum 1.57-1.75 × 10^6 CFU/mL
Method: Logarithmic-phase cultures of MRSA were prepared using similar way except TSA broth was used instead.
(§5) Biocidal activity of synthetic compounds was completed as followed. To 20 mL of bacterial suspension (10^5 or 10^6 cfu/mL) in a centrifuge tube was added 30 μL solution of synthetic compounds (0.282 M stock solution) to achieve a final [Cl^+] of 15 ppm. Timing of the exposure to the disinfectant was started immediately with the addition of the synthetic compound. After predetermined contact time, 1.0 mL aliquots were withdrawn and added to an equal volume of 0.02 N sodium thiosulfate in PBS (0.1 M, pH 7.4). The quenched suspension was serially diluted and 100 μL of each resulting dilution was placed onto nutrient agar plates. After being incubated at 37° C. for 24 hours, the viable bacterial colonies on the plates were counted. Bacterial reduction was reported according to:
as §3
(§6) Log reduction=Log(A/B) (4)
(§7) where A is the number of bacteria in the starting inoculum (cfu/mL), and B is the number of bacteria retrieved from synthetic compounds (cfu/mL).

MRSA (#70527) = assay: Biocidal activity in bacterial suspension (Example 17); assay type: cell-based, Staphylococcus aureus; conditions: 15 ppm [Cl+]
Method: as §1, §2, §3, §4

MRSA (#77090) = assay: as above; assay type: cell-based, Staphylococcus aureus; conditions: 15 ppm [Cl+]
Method: as §1, §2, §3, §4

MRSA ATCC33592 = assay: as above; assay type: cell-based, Staphylococcus aureus; conditions: 15 ppm [Cl+]
Method: as §1, §2, §3, §4

P. aeruginosa 73104 = assay: Biocidal activity in bacterial suspension (Example 18); assay type: cell-based, Pseudomonas aeruginosa; conditions: 15 ppm [Cl+]
Method: Logarithmic-phase cultures of P. aeruginosa were prepared by initially suspending several colonies in cation-supplemented Mueller-Hinton broth (Oxoid, Nepean, Ontario, Canada) at a density equivalent to a 0.5 McFarland standard (1×10^8 cfu/mL). This suspension was then diluted 1:100 and 20 μL of the diluted suspension was further diluted in 60 mL of cation-supplemented Mueller-Hinton broth. Following overnight growth at 37° C., suspensions were diluted 1:[…] to get inoculums of approximately 1×10^6 or 1×10^5 cfu/mL.
as §5, §3, §6, §7

[1] = Table 3, contact 60 min, inoculum 2.26 × 10^5 CFU/mL
[2] = Table 3, contact 90 min, inoculum 2.26 × 10^5 CFU/mL
[3] = Table 4, contact 3 min, inoculum 2.26-2.98 × 10^5 CFU/mL
[4] = Table 4, contact 5 min, inoculum 2.26-2.98 × 10^5 CFU/mL
[5] = Table 4, contact 10 min, inoculum 2.26-2.98 × 10^5 CFU/mL
[6] = Table 4, contact 20 min, inoculum 2.26-2.98 × 10^5 CFU/mL
[7] = Table 4, contact 30 min, inoculum 2.26-2.98 × 10^5 CFU/mL
[8] = Table 4, contact 45 min, inoculum 2.26-2.98 × 10^5 CFU/mL
[9] = Table 4, contact 60 min, inoculum 2.26-2.98 × 10^5 CFU/mL

CC1(C)C(=O)N(CCC[N+](C)(C)C)C(=O)N1Cl [Compound 2]
Bacteria reduction % (MDR-E. coli (#70094); contact 5 min): 100%
Bacteria reduction Log10 (MDR-E. coli (#70094); contact 5 min): 6.17 Log10
Bacteria reduction % (MDR-E. coli (#70094); contact 10 min): 100%
Bacteria reduction Log10 (MDR-E. coli (#70094); contact 10 min): 6.17 Log10
Bacteria reduction % (MDR-E. coli (#70094); contact 20 min): 100%
Bacteria reduction Log10 (MDR-E. coli (#70094); contact 20 min): 6.17 Log10
Bacteria reduction % (MDR-E. coli (#95882); contact 5 min): 100%
Bacteria reduction Log10 (MDR-E. coli (#95882); contact 5 min): 6.67 Log10
Bacteria reduction % (MDR-E. coli (#95882); contact 10 min): 100%
Bacteria reduction Log10 (MDR-E. coli (#95882); contact 10 min): 6.67 Log10
Bacteria reduction % (MDR-E. coli (#95882); contact 20 min): 100%
Bacteria reduction Log10 (MDR-E. coli (#95882); contact 20 min): 6.67 Log10
Bacteria reduction Log10 (E. coli ATCC 25922; contact 5 min): 6.63 Log10
Bacteria reduction % (E. coli ATCC 25922; contact 5 min, inoculum 1.46-5.87 × 10^6 CFU/mL): 100%
Bacteria reduction % (E. coli ATCC 25922; contact 10 min): 100%
Bacteria reduction Log10 (E. coli ATCC 25922; contact 10 min): 6.63 Log10
Bacteria reduction % (E. coli ATCC 25922; contact 20 min): 100%
Bacteria reduction Log10 (E. coli ATCC 25922; contact 20 min): 6.63 Log10
Bacteria reduction % (CA-MRSA 40065; contact 3 min): 92.8%
Bacteria reduction Log10 (CA-MRSA 40065; contact 3 min): 1.14 Log10
Bacteria reduction % (CA-MRSA 40065; contact 5 min): 93.8%
Bacteria reduction Log10 (CA-MRSA 40065; contact 5 min): 1.20 Log10
Bacteria reduction % (CA-MRSA 40065; contact 10 min): 90.3%
Bacteria reduction Log10 (CA-MRSA 40065; contact 10 min): 1.01 Log10
Bacteria reduction % (CA-MRSA 40065; contact 60 min): 99.6%
Bacteria reduction Log10 (CA-MRSA 40065; contact 60 min): 2.36 Log10
Bacteria reduction % (MRSA (#70527); contact 5 min): 100%
Bacteria reduction Log10 (MRSA (#70527); contact 5 min): 6.76 Log10
Bacteria reduction % (MRSA (#70527); contact 10 min): 100%
Bacteria reduction Log10 (MRSA (#70527); contact 10 min): 6.76 Log10
Bacteria reduction % (MRSA (#70527); contact 20 min): 100%
Bacteria reduction Log10 (MRSA (#70527); contact 20 min): 6.76 Log10
Bacteria reduction % (MRSA (#77090); contact 5 min): 100%
Bacteria reduction Log10 (MRSA (#77090); contact 5 min): 6.16 Log10
Bacteria reduction % (MRSA (#77090); contact 10 min): 100%
Bacteria reduction Log10 (MRSA (#77090); contact 10 min): 6.16 Log10
Bacteria reduction % (MRSA (#77090); contact 20 min): 100%
Bacteria reduction Log10 (MRSA (#77090); contact 20 min): 6.16 Log10
Bacteria reduction % (MRSA ATCC33592; contact 5 min): 100%
Bacteria reduction Log10 (MRSA ATCC33592; contact 5 min): 6.60 Log10
Bacteria reduction % (MRSA ATCC33592; contact 10 min): 100%
Bacteria reduction Log10 (MRSA ATCC33592; contact 10 min): 6.60 Log10
Bacteria reduction % (MRSA ATCC33592; contact 20 min): 100%
Bacteria reduction Log10 (MRSA ATCC33592; contact 20 min): 6.60 Log10
Reduction of P. aeruginosa (P. aeruginosa 73104; 10^6 cfu/mL P. aeruginosa, within 60 min of contact): cannot bring any significant reduction
Bacteria reduction % (P. aeruginosa 73104; Table 3, contact 3 min, inoculum 2.26 × 10^5 CFU/mL): 37.6 ± 1.9%
Bacteria reduction % (P. aeruginosa 73104; Table 3, contact 5 min, inoculum 2.26 × 10^5 CFU/mL): 26.6 ± 12.5%
Bacteria reduction Log10 (P. aeruginosa 73104; Table 3, contact 10 min, inoculum 2.26 × 10^5 CFU/mL): 0.41 ± 0.02 Log10
Bacteria reduction % (P. aeruginosa 73104; [1]): 100%
Bacteria reduction Log10 (P. aeruginosa 73104; [1]): 5.35 Log10
Bacteria reduction % (P. aeruginosa 73104; [2]): 100%
Bacteria reduction Log10 (P. aeruginosa 73104; [2]): 5.35 Log10
Bacteria reduction % (P. aeruginosa 73104; [3]): 37.6%
Bacteria reduction Log (P. aeruginosa 73104; [3]): 0.2 Log
Bacteria reduction % (P. aeruginosa 73104; [4]): 26.6%
Bacteria reduction Log (P. aeruginosa 73104; [4]): 0.14 Log
Bacteria reduction % (P. aeruginosa 73104; [5]): 61.5%
Bacteria reduction Log (P. aeruginosa 73104; [5]): 0.41 Log
Bacteria reduction % (P. aeruginosa 73104; [6]): 99.65%
Bacteria reduction Log (P. aeruginosa 73104; [6]): 2.46 Log
Bacteria reduction % (P. aeruginosa 73104; [7]): 99.99%
Bacteria reduction Log (P. aeruginosa 73104; [7]): 4.02 Log
Bacteria reduction % (P. aeruginosa 73104; [8]): 99.99%
Bacteria reduction Log (P. aeruginosa 73104; [8]): 4.67 Log
Bacteria reduction % (P. aeruginosa 73104; [9]): 100%
Bacteria reduction Log (P. aeruginosa 73104; [9]): 5.47 Log
